± gives the uncertainty stated by the source.
Assay: xn = mol fraction of the nth substance listed

CCCC(C)O (stereo unspecified) + COC(C)(C)C
viscosity [mPa·s], 100 kPa
Settings	x2 = 0.0811	x2 = 0.1599	x2 = 0.24	x2 = 0.3501	x2 = 0.44	x2 = 0.56	x2 = 0.65	x2 = 0.74	x2 = 0.8499	x2 = 0.94
293.15 K	2.815 ± 0.027	1.943 ± 0.024	1.344 ± 0.023	0.97 ± 0.02	0.774 ± 0.021	0.621 ± 0.021	0.546 ± 0.021	0.496 ± 0.021	0.436 ± 0.021	0.39 ± 0.02
298.15 K	2.359 ± 0.026	1.633 ± 0.023	1.134 ± 0.022	0.823 ± 0.021	0.666 ± 0.021	0.546 ± 0.021	0.488 ± 0.021	0.441 ± 0.021	0.39 ± 0.02	0.355 ± 0.021
303.15 K	1.994 ± 0.024	1.378 ± 0.023	0.98 ± 0.02	0.705 ± 0.021	0.574 ± 0.021	0.474 ± 0.021	0.424 ± 0.021	0.39 ± 0.02	0.35 ± 0.02	0.321 ± 0.021
308.15 K	1.682 ± 0.023	1.181 ± 0.022	0.868 ± 0.021	0.617 ± 0.021	0.493 ± 0.021	0.407 ± 0.021	0.37 ± 0.02	0.341 ± 0.021	0.313 ± 0.021	0.292 ± 0.021
313.15 K	1.419 ± 0.023	1.001 ± 0.022	0.728 ± 0.021	0.514 ± 0.021	0.407 ± 0.021	0.337 ± 0.021	0.313 ± 0.021	0.296 ± 0.021	0.275 ± 0.021	0.263 ± 0.021
318.15 K	1.208 ± 0.022	0.849 ± 0.021	0.613 ± 0.021	0.412 ± 0.021	0.326 ± 0.021	0.275 ± 0.021	0.255 ± 0.02	0.243 ± 0.02	0.234 ± 0.02	0.231 ± 0.02
323.15 K	1.032 ± 0.022	0.744 ± 0.021	0.524 ± 0.021	0.345 ± 0.021	0.268 ± 0.021	0.226 ± 0.02	0.211 ± 0.02	0.2 ± 0.02	0.197 ± 0.02	0.2 ± 0.02

CCCC(C)O (stereo unspecified) + COc1ccccc1
viscosity [mPa·s], 101.33 kPa
Settings	x2 = 0.1007	x2 = 0.2007	x2 = 0.3001	x2 = 0.4004	x2 = 0.5005	x2 = 0.5991	x2 = 0.6973	x2 = 0.798	x2 = 0.897
303.15 K	2.097 ± 0.028	1.59 ± 0.021	1.279 ± 0.017	1.095 ± 0.014	0.998 ± 0.013	0.951 ± 0.012	0.931 ± 0.012	0.924 ± 0.011	0.919 ± 0.011
313.15 K	1.557 ± 0.021	1.234 ± 0.016	1.025 ± 0.013	0.903 ± 0.012	0.845 ± 0.011	0.823 ± 0.01	0.816 ± 0.01	0.811 ± 0.01	0.801 ± 0.01
323.15 K	1.202 ± 0.016	1.014 ± 0.013	0.887 ± 0.012	0.803 ± 0.01	0.753 ± 0.01	0.725 ± 0.009	0.711 ± 0.009	0.704 ± 0.009	0.697 ± 0.009

CC[N+](CC)(CC)CC.[OH-] + CS(C)=O
viscosity [mPa·s], 100 kPa
Settings	298.15 K	303.15 K	308.15 K	313.15 K
x1 = 0.0142	2.08 ± 0.05	1.9 ± 0.04	1.77 ± 0.04	1.67 ± 0.04
x1 = 0.0405	2.24 ± 0.05	2.07 ± 0.04	1.96 ± 0.04	1.88 ± 0.04
x1 = 0.0693	2.45 ± 0.05	2.29 ± 0.05	2.18 ± 0.05	2.09 ± 0.05
x1 = 0.0995	2.65 ± 0.06	2.49 ± 0.05	2.38 ± 0.05	2.29 ± 0.05
x1 = 0.1314	2.89 ± 0.06	2.72 ± 0.06	2.62 ± 0.06	2.52 ± 0.05
x1 = 0.165	3.11 ± 0.07	2.95 ± 0.06	2.84 ± 0.06	2.76 ± 0.06
x1 = 0.1925	3.29 ± 0.07	3.12 ± 0.07	3 ± 0.06	2.92 ± 0.06
x1 = 0.2381	3.57 ± 0.08	3.41 ± 0.07	3.3 ± 0.07	3.24 ± 0.07
x1 = 0.2988	3.9 ± 0.08	3.75 ± 0.08	3.66 ± 0.08	3.58 ± 0.08
x1 = 0.3654	4.23 ± 0.09	4.1 ± 0.09	4 ± 0.08	3.95 ± 0.08
x1 = 0.4134	4.45 ± 0.09	4.34 ± 0.09	4.22 ± 0.09	4.18 ± 0.09
x1 = 0.4647	4.66 ± 0.1	4.56 ± 0.1	4.45 ± 0.09	4.41 ± 0.09
x1 = 0.5486	4.94 ± 0.1	4.85 ± 0.1	4.73 ± 0.1	4.71 ± 0.1
x1 = 0.6421	5.17 ± 0.11	5.08 ± 0.11	4.96 ± 0.1	4.92 ± 0.1
x1 = 0.7106	5.37 ± 0.11	5.17 ± 0.11	5.02 ± 0.11	5 ± 0.11
x1 = 0.7848	5.3 ± 0.11	5.2 ± 0.11	5.03 ± 0.11	4.99 ± 0.11
x1 = 0.8653	5.23 ± 0.11	5.12 ± 0.11	4.96 ± 0.1	4.89 ± 0.1
x1 = 0.9531	5.08 ± 0.11	4.89 ± 0.1	4.67 ± 0.1	4.54 ± 0.1

C[Si](C)(C)O[Si](C)(C)O[Si](C)(C)O[Si](C)(C)O[Si](C)(C)O[Si](C)(C)C + C[Si](C)(C)O[Si](C)(C)O[Si](C)(C)O[Si](C)(C)C
Settings	viscosity [mPa·s]
298.15 K, 101 kPa, x1 = 0.413	1.738 ± 0.048

CC(=O)OC(C)C + Cc1cc(C)cc(C)c1
308.15 K, 101 kPa
Settings	viscosity [mPa·s]
x2 = 0.09942	0.4428 ± 0.0098
x2 = 0.197	0.4556 ± 0.01
x2 = 0.3029	0.4738 ± 0.01
x2 = 0.3917	0.4812 ± 0.011
x2 = 0.4993	0.5032 ± 0.011
x2 = 0.5992	0.5127 ± 0.011
x2 = 0.6918	0.5289 ± 0.012
x2 = 0.7944	0.539 ± 0.012
x2 = 0.9024	0.5596 ± 0.013

CCCCBr + Cc1cc(C)cc(C)c1
308.15 K, 101 kPa
Settings	viscosity [mPa·s]
x2 = 0.0991	0.5234 ± 0.0045
x2 = 0.1968	0.5242 ± 0.0045
x2 = 0.3043	0.5299 ± 0.0045
x2 = 0.406	0.5323 ± 0.0045
x2 = 0.4969	0.5372 ± 0.0046
x2 = 0.5975	0.5416 ± 0.0046
x2 = 0.7014	0.5482 ± 0.0046
x2 = 0.7972	0.5513 ± 0.0047
x2 = 0.8984	0.5568 ± 0.0047

CC(=O)OC(C)C + Cc1ccc(C)cc1
viscosity [mPa·s], 101 kPa
Settings	303.15 K	308.15 K	313.15 K
x1 = 0.0984	0.554 ± 0.011	–	0.502 ± 0.011
x1 = 0.2017	0.541 ± 0.011	–	0.489 ± 0.011
x1 = 0.3126	0.527 ± 0.011	–	0.476 ± 0.011
x1 = 0.4038	0.515 ± 0.011	–	0.465 ± 0.011
x1 = 0.5039	0.505 ± 0.011	–	0.455 ± 0.011
x1 = 0.6015	0.495 ± 0.011	–	0.446 ± 0.011
x1 = 0.7028	0.487 ± 0.011	–	0.437 ± 0.011
x1 = 0.8113	0.477 ± 0.011	–	0.427 ± 0.011
x1 = 0.9523	0.464 ± 0.011	–	0.417 ± 0.01
x2 = 0.1061	–	0.4401 ± 0.0097	–
x2 = 0.2201	–	0.4568 ± 0.01	–
x2 = 0.2975	–	0.4636 ± 0.01	–
x2 = 0.3892	–	0.4726 ± 0.01	–
x2 = 0.4985	–	0.4819 ± 0.01	–
x2 = 0.5821	–	0.4898 ± 0.011	–
x2 = 0.696	–	0.5019 ± 0.011	–
x2 = 0.7973	–	0.5123 ± 0.011	–
x2 = 0.8976	–	0.5215 ± 0.011	–

CC(=O)OCC(C)C + Cc1ccc(C)cc1
viscosity [mPa·s], 101 kPa
Settings	x1 = 0.1104	x1 = 0.1976	x1 = 0.2789	x1 = 0.376	x1 = 0.4687	x1 = 0.5742	x1 = 0.6833	x1 = 0.7765	x1 = 0.8703	x1 = 0.9481
303.15 K	0.569 ± 0.011	0.572 ± 0.011	0.577 ± 0.011	0.582 ± 0.011	0.588 ± 0.011	0.596 ± 0.011	0.605 ± 0.011	0.614 ± 0.011	0.622 ± 0.011	0.63 ± 0.011
313.15 K	0.511 ± 0.011	0.512 ± 0.011	0.514 ± 0.011	0.516 ± 0.011	0.519 ± 0.011	0.526 ± 0.011	0.536 ± 0.011	0.547 ± 0.011	0.558 ± 0.011	0.57 ± 0.011

CCCCBr + Cc1ccc(C)cc1
308.15 K, 101 kPa
Settings	viscosity [mPa·s]
x2 = 0.1002	0.5174 ± 0.0044
x2 = 0.2	0.5139 ± 0.0044
x2 = 0.2996	0.5114 ± 0.0044
x2 = 0.3997	0.5104 ± 0.0044
x2 = 0.4329	0.5092 ± 0.0044
x2 = 0.6161	0.5084 ± 0.0043
x2 = 0.7006	0.5095 ± 0.0044
x2 = 0.7996	0.5107 ± 0.0044
x2 = 0.8946	0.5121 ± 0.0044

COCCO + Cc1ccc(C)cc1
viscosity [mPa·s], 101 kPa
Settings	298.15 K	308.15 K
x1 = 0.0528	0.626 ± 0.011	0.549 ± 0.01
x1 = 0.1469	0.654 ± 0.012	0.57 ± 0.01
x1 = 0.2507	0.696 ± 0.012	0.601 ± 0.011
x1 = 0.3484	0.746 ± 0.013	0.639 ± 0.011
x1 = 0.4499	0.812 ± 0.014	0.688 ± 0.012
x1 = 0.4999	0.85 ± 0.014	0.716 ± 0.013
x1 = 0.5542	0.897 ± 0.015	0.75 ± 0.013
x1 = 0.6493	0.994 ± 0.017	0.82 ± 0.014
x1 = 0.7508	1.122 ± 0.018	0.913 ± 0.016
x1 = 0.8478	1.274 ± 0.021	1.021 ± 0.017
x1 = 0.9556	1.488 ± 0.024	1.17 ± 0.02

— the CheMixHub viscosity set
